Laboratory results published in patent EP1112066B1, “USE OF METHOXYMORPHOLINO DOXORUBICIN FOR THE TREATMENT OF A LIVER TUMOR” (Pharmacia Italia S.p.A., priority 1998, dated 2000).
Structures can show the parent of a compound that is named as a salt. Where two headings read alike, the source gives them in different places.

Tests used:
[1] = tested on: metastatic colorectal cancer; conditions: cited from earlier work
[2] = tested on: liver metastases; conditions: hepatic arterial infusion; no substantial effect on survival; cited from earlier work
[3] = tested on: liver metastases from M5076 murine fibrosarcoma; test: Liver metastases from M5076 murine tumor; assay type: in vivo
Text: (§1) The high lipophilicity of the molecule, which confers to the compound the ability to reach high intracellular concentrations and is most likely one of the reasons of its efficacy on resistant models, makes it effective also after oral administration. The oral antitumor efficacy of MMDX has been examined in a panel of different tumor types with various schedules of administration. […] In these models, the effective oral doses of MMDX are 1.3-2 fold higher than the effective i.v. doses. […] This might be a reflection of a different behaviour of the drug, due to first pass effect to the liver.
(§2) Strong evidence of antitumor efficacy in liver is also supported by preclinical data. […] This specific effect on liver metastases is probably due to metabolite(s) produced by liver enzymes. This hypothesis is reinforced by several results showing MMDX being activated in vitro by liver microsomes to a highly cytotoxic product. This metabolic conversion is believed to occur also in humans.

[4] = Lipophilicity
[5] = tested on: panel of different tumor types; test: Oral antitumor efficacy in a panel of tumor types; assay type: in vivo
Text: as §1

[6] = Phase I dose-finding study of MMDX via the hepatic artery (IHA): toxicity; assay type: in vivo, human; conditions: for thrombocytopenia (grade): considered tumor related (HCC patient); for anemia (max. grade): one patient
Experimental: (§3) A single arm, multicentre, dose-finding Phase I study of MMDX (PNU 152243) administered as a brief infusion of 30 minutes every 4 weeks via the hepatic artery (IHA) to adult patients either with hepatic metastatic colorectal cancer who have progressed after receiving intravenous chemotherapy or intrahepatic 5-fluoruracil chemotherapy, or with previously untreated primary hepatocellular carcinoma or cholangiocarcinoma involving the liver was carried out. Their disease was confined to the liver, at the time of trial entry.
The primary goal of this study was the determination of Maximal Tolerated Dose (MTD) and Dose-Limiting Toxicities (DLTs)of MMDX when administered via the hepatic artery.
(§4) The starting dose was 100 mcg/m^2,corresponding to one third of the LD10 in rats.
(§5) On a total of 23 registered patients, 18 received intra hepatic artery (IHA) administration of MMDX.
(§6) Doses tested ranged from 100 mcg/m^2 to 800 mcg/m^2.
(§7) Results are available on 13 patients: 3 patients (6 cycles) at 100 mcg/m^2, 3 patients (12 cycles) at 200mcg/m^2, 3 patients (4 cycles) at 400 mcg/m^2, 3 patients (10 cycles) at 600 mcg/m^2 and 1 patient (3 cycles) at 800 mcg/m^2.

[7] = tested on: tumor cells resistant to anthracyclines and presenting the mdr phenotype; test: Activity in vitro and in vivo on resistant tumor cells
Text: MMDX is active in vitro and in vivo on tumor cells resistant to anthracyclines and presenting the mdr phenotype, this last mechanism being recognized to occur also in man.
A well known pathway of the metabolic transformation of the antitumor anthracyclines in mammals is the side-chain carbonyl group reduction, giving the corresponding 13-dihydro derivative.

[8] = tested on: murine leukemias, solid murine and human tumor models; test: In vivo antitumor potency, optimal i.v. dose
[9] = Lethal dose (LD10) in rats; assay type: in vivo
Text: as §4

[10] = tested on: liver metastases; test: Phase II study by i.v. route in breast cancer patients with liver metastases; assay type: in vivo, human; conditions: 1500 mcg/m^2 i.v., six patients treated
[11] = tested on: HCC; test: Phase I dose-finding study of MMDX via the hepatic artery (IHA): antitumor activity in liver; assay type: in vivo, human
Experimental: as §3
Antitumor activity was documented in this study.
as §5, §6, §7

[12] = tested on: liver metastases; test: Phase I and phase Ib studies by intravenous route: response in liver and toxicity; assay type: in vivo, human; conditions: i.v.
Text: The expectation that MMDX is effective in liver neoplasms comes from the findings of phase I and phase Ib studies conducted by intravenous route, where, out of 30 patients evaluable for response in liver, 5 experienced regressions of liver metastases. […] Tumor shrinkage occurred at doses of 1250 and 1500 mcg/m^2 i.v..

[13] = Cytotoxic activity in vitro in the presence of liver microsomes; assay type: cell-based; conditions: mouse, rat and human liver microsomes
Text: as §2

[14] = systemic, metastatic colorectal cancer
[15] = after failure of 5-FU leucovorin
[16] = 400 mcg/m^2 IHA, one patient (1 cycle)
[17] = 600 mcg/m^2 IHA, 1 patient (2 cycles)
[18] = 800 mcg/m^2 IHA, 1 patient (1 cycle)

## 5-fluoruracil (5-FU) plus folinic acid
[1]; [14]
  overall survival: around 12 months
  response rate: 20%

## O=c1[nH]cc(F)c(=O)[nH]1 [5-FU, 5-fluoruracil]
[2]
  response rate: up to 50%

## O=c1[nH]c(=O)n([C@H]2C[C@H](O)[C@@H](CO)O2)cc1F [FUDR, 5-fluorodeoxyuridine]
[2]
  response rate: up to 50%

## CCc1c2c(nc3ccc(OC(=O)N4CCC(N5CCCCC5)CC4)cc13)-c1cc3c(c(=O)n1C2)COC(=O)[C@]3(O)CC [Irinotecan hydrochloride trihydrate]
[1]; [15]
  median survival time: approximately 9 months
  response rate: 15%

## COc1cccc2c1C(=O)c1c(O)c3c(c(O)c1C2=O)C[C@@](O)(C(=O)CO)C[C@@H]3O[C@H]1C[C@H](N2CCO[C@H](OC)C2)[C@H](O)[C@H](C)O1 [MMDX, Methoxymorpholino doxorubicin]
[3]; administered orally, same M5076 model
  efficacy on the liver metastases versus the solid primary: more effective on the liver metastases than on the solid primary
[3]; injectable formulation
  efficacy relative to the oral formulation: less effective
[3]; oral formulation, daily for 5 days
  survival time (best result): doubling of survival time
[4]
  lipophilicity: high
[5]; all animal models examined, various schedules
  oral antitumor activity compared to intravenous (i.v.) administration: comparable
[5]; animal models
  effective oral doses, fold higher than the effective i.v. doses: 1.3-2 fold
[6]; 100 mcg/m^2 IHA, 1 patient (1 cycle)
  leucopenia (grade): 1
[6]; 100 mcg/m^2 IHA, 2 patients (3 cycles)
  fatigue (grade): 1-2
[6]; 100 mcg/m^2 IHA, one out of three patients (1 cycle)
  vomiting: mild
[6]; 200 mcg/m^2 IHA, 1 patient (1 cycle)
  leucopenia (grade): 1
[6]; 200 mcg/m^2 IHA, 1 patient (2 cycles)
  fatigue (grade): 2
[6]; 200 mcg/m^2 IHA, 1 patient (3 cycles)
  thrombocytopenia (grade): 1-2
[6]; 200 mcg/m^2 IHA, 2/3 patients
  increase in transaminases (grade), attributable to the study drug: 1-2
[6]; 200 mcg/m^2 IHA, 2 patients (2 cycles)
  nausea (grade): 2
[6]; 200 mcg/m^2 IHA, 2 patients (3 cycles)
  vomiting (grade): 1-2
[6]; 200 mcg/m^2 IHA
  anemia (max. grade): ≤ 1
[6]; 200 mcg/m^2 IHA, two patients (one diabetic, persisting from baseline; one post prandial)
  hyperglycemia (grade): 3
[6]; 400 mcg/m^2 IHA, 1 patient (1 cycle)
  leucopenia (grade): 1
[6]; 400 mcg/m^2 IHA, 2/3 patients
  increase in transaminases (grade), attributable to the study drug: 1-2
[6]; 400 mcg/m^2 IHA, 2 patients (2 cycles)
  nausea (grade): 2-3
[6]; [16]
  alopecia: mild
  local pain at porth-a-cath site: Mild
  vomiting (grade): 2
[6]; 400 mcg/m^2 IHA, third patient, probably due to the IHA technology applied
  transaminase elevation (grade): 2-3
[6]; 600 mcg/m^2 IHA, 1 patient (1 cycle)
  thrombocytopenia (grade): 1-2
[6]; [17]
  alopecia: mild
  fatigue (grade): 2
[6]; 600 mcg/m^2 IHA, 2 out of 3 patients
  increase in transaminases (grade), attributable to the study drug: 1-2
[6]; 600 mcg/m^2 IHA, 2 patients (2 cycles)
  nausea (grade): 1-2
[6]; 600 mcg/m^2 IHA
  anemia (max. grade): ≤ 1
[6]; [18]
  fatigue (grade): 1
  fever (grade): 1
  mucositis (grade): 1
  nausea (grade): 1
[6]; 800 mcg/m^2 IHA
  anemia (max. grade): ≤ 1
[6]; 800 mcg/m^2 IHA, the one patient treated
  transaminase elevation (grade): 3
[6]; IHA
  time of maximum transaminases elevation: during the first week after treatment
[6]; IHA, 100-800 mcg/m^2
  most frequently observed adverse events attributable to the study drug: nausea, vomiting and fatigue
  other grade 3-4 non-hematological events: No other grade 3-4 events
[6]; IHA, all doses reported
  AGC: always normal
[6]; IHA, starting from 100 mcg/m^2, not considered due to the study drug
  bilirubinemia increases (grade): 2
[7]; in vitro and in vivo
  activity on tumor cells resistant to anthracyclines (mdr phenotype): active
[7]; tumor cells resistant to L-PAM or cDDP, or to Topoisomerase II inhibitors (at-mdr)
  cross-resistance: No cross-resistance
[8]; after i.p., i.v. or oral administration, murine leukemias, solid murine and human tumor models
  antitumor activity: good antitumor activity
[8]; in vivo, i.v.
  optimal i.v. dose, fold less than that of doxorubicin: at least 80 fold
[9]
  one third of the LD10 in rats: 100 mcg/m^2
[10]
  number of complete responses in liver lesions: 1
  number of minor responses in liver lesions: 1
[10]; one not confirmed four weeks apart
  number of partial responses in liver lesions: 3
[11]; 200 mcg/m^2 IHA, first HCC patient, after 2 IHA cycles
  reduction of measurable liver disease (NMR, overall 17.75 cm^2 at entry): more than 86%
[11]; 200 mcg/m^2 IHA, first HCC patient, after 2 IHA cycles, confirmed after the fourth
  tumor response: Partial Response (PR)
[11]; 200 mcg/m^2 IHA, first HCC patient, after the sixth IHA cycle
  tumor response: Complete Response (CR)
[11]; 200 mcg/m^2 IHA, patients with HCC
  number of objective tumor responses in liver: Two
[11]; 200 mcg/m^2 IHA, second HCC patient, after the third IHA cycle
  decrease of the bigger lesion in diameter (6 cm at baseline, Ctscan): 50%
[11]; 800 mcg/m^2 IHA, third HCC patient, after 3 cycles
  tumor response: minor response
[12]; phase I and Ib
  main toxicities: nausea and vomiting (requiring intravenous antiemetic treatment), myelosuppression and transient elevations in transaminases
[12]; additional patient with colorectal cancer and multiple liver metastases at entry, after the first cycle
  liver finding at autopsy: no evidence of liver metastases
[12]; out of 30 patients evaluable for response in liver, shrinkage at 1250 and 1500 mcg/m^2
  number of patients with regressions of liver metastases: 5
[12]; two patients with colorectal cancer, after 3 cycles
  regression of liver lesions: < 50%
[12]; two patients with renal cancer, after 3 cycles
  regression in liver lesions: greater than 50%
[13]
  cytotoxic activity in the presence of liver microsomes: increased

## COc1cccc2c1C(=O)c1c(O)c3c(c(O)c1C2=O)CC(O)(C(O)CO)CC3OC1CC(N2CCOC(OC)C2)C(O)C(C)O1 (stereo not drawn) [reduced derivative of MMDX]
[7]; doxorubicin-resistant models, in vitro and in vivo
  active doses, fold higher as compared to the parent drug: 10 fold
[7]; in vitro and in vivo
  activity against doxorubicin-resistant models: maintains activity
